Results published in patent publication US10640511B2, “Hepatitis B antiviral agents” (ENANTA PHARMACEUTICALS, INC., priority 2016, dated 2020).

What was measured:
HBV = assay: HepAD38 antiviral assay: reduction of viral product accumulation (virion DNA by qPCR; HBsAg/HBeAg ELISA); type: cell-based, hepatitis B virus (HBV); conditions: Hepatitis B virus, 120 h; HepAD38 cells; 50% reduction of viral product accumulation relative to no drug controls; harvest five days after compound addition
Protocol: Methods: HepAD38 cells are maintained as previously reported (Ladner et al, Antimicrob. Agents Chemother. 1997, […], 1715). Briefly, cells are passaged upon attaining confluency in DMEM/F12 media in the presence of 10% FBS, Penn/Strep, 250 μg/mL G418, and 1 μg/ml tetracycline. Novel compounds are screened by first washing cells three times with PBS to remove tetracycline, and plating in 96 well plates at 35,000 cells/well. Compounds dissolved in DMSO are then diluted 1:200 into wells containing cells. Five days after compound addition, material is harvested for analysis. For an extended 8 day analysis, cells are plated and treated as described above, but media and compound are refreshed on d2 and d5 post initial treatment.
On harvest day, virion DNA is obtained by lysing with Sidestep Lysis and Stabilization Buffer and then quantified via quantitative real time PCR. Commercially available ELISA kits are used to quantitate the viral proteins HBsAg (Alpco) or HbeAg (US Biological) by following the manufacturer's recommended protocol after diluting samples to match the linear range of their respective assays. Irrespective of readout, compound concentrations that reduce viral product accumulation in the cell lysates or supernatants by 50% relative to no drug controls (EC50) are reported; EC50 ranges are as follows: A<0.1 μM; B 0.1-1 μM; C>1 μM.

[1] = Compound toxicity, ATPLite total ATP levels; type: cell-based; conditions: human, HepG2 cells, 50% reduction of total ATP levels (ATPLite) three days after compound addition
Protocol: Compound toxicity is evaluated by seeding cells at 15,000 cells/well and treating with compound as described above.

SMILES	EC50 (HBV)	CC50 at 3 days ([1]; class symbols)	CC50 at 3 days ([1]; numeric bound)
Cn1ccc(C2=C3C[C@H](NS(=O)(=O)C4CC4)CN3C(c3nccs3)=NC2(C)c2ccc(F)cc2)n1 (some centres unmarked) [Example 4]	< 100 nM	–	–
CC(C)S(=O)(=O)N[C@H]1CC2=C(c3ccn(C)n3)[C@H](c3ccc(F)cc3Cl)N=C(c3nccs3)N2C1 [Example 8]	< 100 nM	–	–
Cn1ccc(C2=C3CC(NC(=O)OC(C)(C)C)CN3C(c3nccs3)=N[C@H]2c2ccc(F)cc2Cl)n1 (some centres unmarked) [Example 1]	< 100 nM	< 10000 nM	–
CCS(=O)(=O)N[C@H]1CC2=C(c3ccn(C)n3)[C@H](c3ccc(F)cc3Cl)N=C(c3nccs3)N2C1 [Example 7]	< 100 nM	–	–
Cn1ccc(C2=C3C[C@H](NS(=O)(=O)C4CCCCC4)CN3C(c3nccs3)=N[C@H]2c2ccc(F)cc2Cl)n1 [Example 13]	< 100 nM	–	–
O=S(=O)(N[C@H]1CC2=C(c3ncco3)[C@H](c3ccc(F)cc3Cl)N=C(c3nccs3)N2C1)C1CC1 [Example 15]	< 100 nM	–	–
Cn1ccc(C2=C3CC(NS(=O)(=O)C4CC4)CN3C(c3nccs3)=N[C@H]2c2ccc(F)cc2Cl)n1 (some centres unmarked) [Example 2]	< 100 nM	> 25000 nM	–
Cn1ccc(C2=C3C[C@H](NS(=O)(=O)C4CCCC4)CN3C(c3nccs3)=N[C@H]2c2ccc(F)cc2Cl)n1 [Example 12]	< 100 nM	–	–
CCn1ccc(C2=C3C[C@H](NS(=O)(=O)C4CC4)CN3C(c3nccs3)=N[C@H]2c2ccc(F)cc2Cl)n1 [Example 22]	< 100 nM	–	> 6000 nM
O=S(=O)(N[C@H]1CC2=C(c3ccccn3)[C@H](c3ccc(F)cc3Cl)N=C(c3nccs3)N2C1)C1CC1 [Example 23]	100 to 1000 nM	–	–
Cc1cnc(C2=C3C[C@H](NS(=O)(=O)C4CC4)CN3C(c3nccs3)=N[C@H]2c2ccc(F)cc2Cl)o1 [Example 18]	< 100 nM	> 25000 nM	–
Cn1ccc(C2=C3C[C@H](NS(C)(=O)=O)CN3C(c3nccs3)=N[C@H]2c2ccc(F)cc2Cl)n1 [Example 6]	< 100 nM	–	–
Cn1ccc(C2=C3C[C@H](NS(=O)(=O)Cc4ccccc4)CN3C(c3nccs3)=N[C@H]2c2ccc(F)cc2Cl)n1 [Example 9]	< 100 nM	–	–
[2H]C([2H])([2H])n1ccc(C2=C3C[C@H](NS(=O)(=O)C4CC4)CN3C(c3nccs3)=N[C@H]2c2ccc(F)cc2Cl)n1 [Example 17]	< 100 nM	> 25000 nM	–
Cn1ccc(C2=C3C[C@H](NS(=O)(=O)C4CC4)CN3C(c3nccs3)=N[C@@]2(C)c2ccc(F)c(F)c2)n1 [Example 16]	< 100 nM	–	–
Cc1coc(C2=C3C[C@H](NS(=O)(=O)C4CC4)CN3C(c3nccs3)=N[C@H]2c2ccc(F)cc2Cl)n1 [Example 21]	< 100 nM	–	–
Cn1ccc(C2=C3C[C@H](NS(=O)(=O)C4CCC4)CN3C(c3nccs3)=N[C@H]2c2ccc(F)cc2Cl)n1 [Example 11]	< 100 nM	–	–
Cn1ccc(C2=C3C[C@H](NS(=O)(=O)C4CC4)CN3C(c3nccs3)=N[C@H]2c2ccc(F)cc2Cl)n1 [Example 3]	< 100 nM	–	–
Cn1ccc(C2=C3C[C@H](NS(N)(=O)=O)CN3C(c3nccs3)=N[C@H]2c2ccc(F)cc2Cl)n1 [Example 20]	< 100 nM	> 25000 nM	–
Cn1ccc(C2=C3C[C@H](NS(=O)(=O)c4ccccc4)CN3C(c3nccs3)=N[C@H]2c2ccc(F)cc2Cl)n1 [Example 14]	< 100 nM	–	–
Cn1ccc(C2=C3C[C@H](NS(=O)(=O)C4CC4)CN3C(c3nccs3)=N[C@@]2(C)c2ccc(F)cc2)n1 [Example 5]	< 100 nM	–	–
Cn1cc(C2=C3C[C@H](NS(=O)(=O)C4CC4)CN3C(c3nccs3)=N[C@H]2c2ccc(F)cc2Cl)cn1 [Example 19]	< 100 nM	–	–
Cn1ccc(C2=C3C[C@H](NS(=O)(=O)C4(C)CC4)CN3C(c3nccs3)=N[C@H]2c2ccc(F)cc2Cl)n1 [Example 10]	< 100 nM	–	–
